Laboratory results: patent US11185524B2 (Novus International, Inc., priority 2019, dated 2021)
Marks after values point to notes of the source that are not given here.

Key:
rumen microorganisms = assay: In vitro evaluation of rumen protection: degradation by rumen microorganisms in rumen fluid incubation; assay type: in vitro ADME, Holstein steers (rumen fluid donors); details: male, Holstein, cattle, 12 h
Procedure: Schematics of the HMTBa derivatives are presented below in Table. 1. Following the methodology of Patterson and Kung (J. Dairy Sci., 1988, vol. 71, pp. 3292-3301), fermentation substrate comprising casein, cellobiose, starch, pectin, and cellulose was added at a rate of 0.45 g to 250 mL fermentation flasks. HMTBa derivatives were randomly assigned to flasks and thoroughly mixed to ensure that all compounds were incorporated into the substrate. Methionine hydroxy analog (MHA), polymer encapsulated methionine (eMet) were also included as controls, as well as a blank. A total of 28 fermentation flasks were used, resulting in 4 replicates per treatment for each of the two experiments. Three cannulated Holstein steers were utilized as rumen fluid donors. Steers were housed on pasture, allowed to graze freely, and provided free choice supplement. Approximately 1000 mL of rumen fluid and a handful of rumen contents were obtained from each steer. Rumen fluid and contents were combined in pre-heated thermoses, transported to the lab, blended using a hand blender, and strained through 8 layers of cheese cloth. Combined rumen fluid was maintained under CO2 and thoroughly mixed. […] Due to variability associated with in vitro methodology, replicates were evaluated for similarity. […] Recovery of HMTBa or methionine was determined and expressed relative to initial amount of HMTBA or methionine (active) added. […]

[1] = in vivo

Structure (SMILES) | Free Active recovered (rumen microorganisms) | Ruminal undegradability (estimated ruminal stability) (rumen microorganisms) | HMTBa in plasma [1] | L-methionine in plasma [1] | Methionine equivalents in plasma (sum of L-methionine, D-methionine, and HMTBa) [1]
CSCCC1OC(=O)C(CCSC)OC1=O (centres unmarked) [Cyclic Dimer, 3,6-bis(2-methylthio)ethyl-1,4-dioxane-2,5-dione] | 439.6^c ppm | 56.64^c |  |  | 
CSCCC(O)C(=O)O (centres unmarked) [MHA, Methionine hydroxy analog] |  |  | 0.324^a μg/mL | 5.312^a μg/mL | 5.666^a μg/mL
